According to paper PMC10082216 (Nature Communications, 2023):
Where two headings read alike, the source gives them in different places.

Assay: TD-6450 phase I clinical study (SAD/MAD): pharmacokinetics
Assay type: in vivo, human
Conditions: male, human
Experimental: Primary and secondary outcomes were pre-defined as follows: Safety and tolerability as a primary outcome, pharmacokinetics as a secondary outcome. Safety and tolerability were evaluated using standard measures, including adverse event (AE) monitoring, clinical laboratory tests (hematology, serum chemistry, coagulation, and urinalysis), vital signs, physical examinations, and 12-lead electrocardiograms (ECGs). […]
This study was conducted in two parts, Part A (SAD) and Part B (MAD). For the Part A, the age of enrolled subjects ranged from 20 to 60 years, with a mean age range of 32.1 to 46.2 years. Most subjects were male (73 total subjects) and most were white (55 subjects) or black (22 subjects). For Part B of the study, ages ranged from 23 to 60 years with a similar mean age across treatment groups. Most subjects were male (25 total subjects) and all were either white (18 subjects) or black (12 subjects). For each part of the study, the mean body mass index (BMI) and creatinine clearance were similar across treatment groups. […] Part A: Healthy subjects were sequentially enrolled and randomly assigned to each dose cohort (up to 10 dose-ascending cohorts were planned, including a fed arm in the food effect cohort) to receive either a single dose of TD-6450 or placebo. For each dose cohort, 8 subjects were randomized in a 3:1 ratio (6 subjects received TD-6450 and 2 subjects received placebo). The starting dose of TD-6450 was 0.5 mg with a planned maximum dose of 1000 mg. Upon review of the 500-mg cohort PK data, the decision was made to not escalate to the 1000-mg cohort because of exposure saturation at ≥ 500 mg. The following doses were administered: 0.5 mg, 1.5 mg, 5 mg, 15 mg, 30 mg, 60 mg, 120 mg, 240 mg, and 500 mg. Part B: Healthy subjects were sequentially enrolled in 3 ascending dose cohorts (TD-6450 60 mg, 120 mg, and 240 mg) and randomly assigned to receive either TD-6450 or placebo as once daily doses for 14 days. For each dose cohort, 10 subjects were randomized in a 4:1 ratio (8 subjects received TD-6450 and 2 subjects received placebo). Blinded safety, tolerability, and available PK data after each dose cohort were reviewed by the Safety Data Review Committee (SDRC) before escalation to the next dosing cohort for both part A and B. Subjects of the clinical study were randomly assigned to each cohort. Randomizations codes were assigned to the subjects. All study subjects, study investigators, and the sponsor’s staff involved in the conduct of the study were blinded to treatment assignment. The only personnel who had access to the randomization code before database lock were: The pharmacist or pharmacy staff member who prepared drug or placebo capsules for administration to the subject according to the randomization code and the bioanalytical contract laboratory that analyzed the PK samples (plasma and urine).

CNC(=O)N1C[C@@H](C)N(c2ccc(C(=O)Nc3ccc(-c4ccc(-c5c[nH]c([C@@H]6CCCN6C(=O)[C@@H](NC(=O)OC)C(C)C)n5)cc4)c(OC(F)(F)F)c3)cn2)C[C@@H]1C [TD-6450]
TD-6450 concentration (in vivo, 120 h): 29.30 ng/mL | concentration at 15 min (in vivo, TD-6450 concentration): 0 ng/mL | concentration at 2 h (in vivo, TD-6450 concentration): 116 ng/mL | concentration at 3 h (in vivo, TD-6450 concentration): 156 ng/mL | concentration at 4 h (in vivo, TD-6450 concentration): 159 ng/mL | concentration at 6 h (in vivo, TD-6450 concentration): 165 ng/mL | concentration at 12 h (in vivo, TD-6450 concentration): 108 ng/mL | concentration at 24 h (in vivo, TD-6450 concentration): 85.6 ng/mL | concentration at 48 h (in vivo, TD-6450 concentration): 60 ng/mL | concentration at 72 h (in vivo, TD-6450 concentration): 42.6 ng/mL | concentration at 96 h (in vivo, TD-6450 concentration): 27.1 ng/mL | concentration at 120 h (in vivo, TD-6450 concentration): 19.3 ng/mL | concentration at 144 h (in vivo, TD-6450 concentration): 15.1 ng/mL | concentration at 168 h (in vivo, TD-6450 concentration): 12.2 ng/mL | concentration at 312 h (in vivo, TD-6450 concentration): 2.12 ng/mL | concentration at 1 h (plasma, oral, 0.5 mg, Male subjects, SAD arm NCT02022306, Dose 0.50, 1 Hour, read-out: Concentration): 0 ng/mL | concentration at 2 h (plasma, oral, 0.5 mg, Male subjects, SAD arm NCT02022306, Dose 0.50, 2 Hours, read-out: Concentration): 0 ng/mL | concentration at 3 h (plasma, oral, 0.5 mg, Male subjects, SAD arm NCT02022306, Dose 0.50, 3 Hours, read-out: Concentration): 0 ng/mL | concentration at 15 min (plasma, oral, 0.5 mg, Male subjects, SAD arm NCT02022306, Dose 0.50, 15 Minutes, read-out: Concentration): 0 ng/mL | concentration at 24 h (plasma, oral, 0.5 mg, Male subjects, SAD arm NCT02022306, Dose 0.50, 24 Hours, read-out: Concentration): 0 ng/mL | concentration at 30 min (plasma, oral, 0.5 mg, Male subjects, SAD arm NCT02022306, Dose 0.50, 30 Minutes, read-out: Concentration): 0 ng/mL | concentration at 72 h (plasma, oral, 0.5 mg, Male subjects, SAD arm NCT02022306, Dose 0.50, 72 Hours, read-out: Concentration): 0 ng/mL | concentration at 96 h (plasma, oral, 0.5 mg, Male subjects, SAD arm NCT02022306, Dose 0.50, 96 Hours, read-out: Concentration): 0 ng/mL | concentration at 120 h (plasma, oral, 0.5 mg, Male subjects, SAD arm NCT02022306, Dose 0.50, 120 Hours, read-out: Concentration): 0 ng/mL | concentration at 144 h (plasma, oral, 0.5 mg, Male subjects, SAD arm NCT02022306, Dose 0.50, 144 Hours, read-out: Concentration): 0 ng/mL | concentration at 168 h (plasma, oral, 0.5 mg, Male subjects, SAD arm NCT02022306, Dose 0.50, 168 Hours, read-out: Concentration): 0 ng/mL | concentration at 15 min (plasma, oral, 1.5 mg, Male subjects, SAD arm NCT02022306, Dose 1.50, 15 Minutes, read-out: Concentration): 0 ng/mL | concentration at 30 min (plasma, oral, 1.5 mg, Male subjects, SAD arm NCT02022306, Dose 1.50, 30 Minutes, read-out: Concentration): 0 ng/mL | concentration at 15 min (plasma, oral, 5 mg, Male subjects, SAD arm NCT02022306, Dose 5.00, 15 Minutes, read-out: Concentration): 0 ng/mL | concentration at 15 min (plasma, oral, 15 mg, Male subjects, SAD arm NCT02022306, Dose 15.00, 15 Minutes, read-out: Concentration): 0 ng/mL | concentration at 1 h (plasma, oral, 30 mg, Male subjects, SAD arm NCT02022306, Dose 30.00, 1 Hour, read-out: Concentration (ng/ml)): 0.68 ng/mL | concentration at 2 h (plasma, oral, 30 mg, Male subjects, SAD arm NCT02022306, Dose 30.00, 2 Hours, read-out: Concentration): 9.36 ng/mL | concentration at 3 h (plasma, oral, 30 mg, Male subjects, SAD arm NCT02022306, Dose 30.00, 3 Hours, read-out: Concentration): 15.6 ng/mL | concentration at 3 h (plasma, oral, 30 mg, Male subjects, SAD arm NCT02022306, Dose 30.00, 3 Hours, read-out: Concentration (ng/ml)): 20.9 ng/mL | concentration at 4 h (plasma, oral, 30 mg, Male subjects, SAD arm NCT02022306, Dose 30.00, 4 Hours, read-out: Concentration): 18.8 ng/mL | concentration at 4 h (plasma, oral, 30 mg, Male subjects, SAD arm NCT02022306, Dose 30.00, 4 Hours, read-out: Concentration (ng/ml)): 17.9 ng/mL | concentration at 6 h (plasma, oral, 30 mg, Male subjects, SAD arm NCT02022306, Dose 30.00, 6 Hours, read-out: Concentration): 22.6 ng/mL | concentration at 8 h (plasma, oral, 30 mg, Male subjects, SAD arm NCT02022306, Dose 30.00, 8 Hours, read-out: Concentration): 26.3 ng/mL | concentration at 12 h (plasma, oral, 30 mg, Male subjects, SAD arm NCT02022306, Dose 30.00, 12 Hours, read-out: Concentration): 18.7 ng/mL | concentration at 15 min (plasma, oral, 30 mg, Male subjects, SAD arm NCT02022306, Dose 30.00, 15 Minutes, read-out: Concentration): 0 ng/mL | concentration at 15 min (plasma, oral, 30 mg, Male subjects, SAD arm NCT02022306, Dose 30.00, 15 Minutes, read-out: Concentration (ng/ml)): 0 ng/mL | concentration at 24 h (plasma, oral, 30 mg, Male subjects, SAD arm NCT02022306, Dose 30.00, 24 Hours, read-out: Concentration): 14.3 ng/mL | concentration at 30 min (plasma, oral, 30 mg, Male subjects, SAD arm NCT02022306, Dose 30.00, 30 Minutes, read-out: Concentration (ng/ml)): 0 ng/mL | concentration at 48 h (plasma, oral, 30 mg, Male subjects, SAD arm NCT02022306, Dose 30.00, 48 Hours, read-out: Concentration): 9.12 ng/mL | concentration at 72 h (plasma, oral, 30 mg, Male subjects, SAD arm NCT02022306, Dose 30.00, 72 Hours, read-out: Concentration): 6.82 ng/mL | concentration at 72 h (plasma, oral, 30 mg, Male subjects, SAD arm NCT02022306, Dose 30.00, 72 Hours, read-out: Concentration (ng/ml)): 5.73 ng/mL | concentration at 96 h (plasma, oral, 30 mg, Male subjects, SAD arm NCT02022306, Dose 30.00, 96 Hours, read-out: Concentration): 5.25 ng/mL | concentration at 96 h (plasma, oral, 30 mg, Male subjects, SAD arm NCT02022306, Dose 30.00, 96 Hours, read-out: Concentration (ng/ml)): 4.83 ng/mL | concentration at 120 h (plasma, oral, 30 mg, Male subjects, SAD arm NCT02022306, Dose 30.00, 120 Hours, read-out: Concentration): 4.26 ng/mL | concentration at 120 h (plasma, oral, 30 mg, Male subjects, SAD arm NCT02022306, Dose 30.00, 120 Hours, read-out: Concentration (ng/ml)): 3.52 ng/mL | concentration at 144 h (plasma, oral, 30 mg, Male subjects, SAD arm NCT02022306, Dose 30.00, 144 Hours, read-out: Concentration): 3.26 ng/mL | concentration at 144 h (plasma, oral, 30 mg, Male subjects, SAD arm NCT02022306, Dose 30.00, 144 Hours, read-out: Concentration (ng/ml)): 3.18 ng/mL | concentration at 168 h (plasma, oral, 30 mg, Male subjects, SAD arm NCT02022306, Dose 30.00, 168 Hours, read-out: Concentration): 2.33 ng/mL | concentration at 168 h (plasma, oral, 30 mg, Male subjects, SAD arm NCT02022306, Dose 30.00, 168 Hours, read-out: Concentration (ng/ml)): 2.29 ng/mL | concentration at 8 h (plasma, oral, 60 mg, Male subjects, SAD arm NCT02022306, Dose 60.00, 8 Hours, read-out: Concentration (ng/ml)): 110 ng/mL | concentration at 15 min (plasma, oral, 60 mg, Male subjects, SAD arm NCT02022306, Dose 60.00, 15 Minutes, read-out: Concentration (ng/ml)): 0 ng/mL | concentration at 15 min (plasma, oral, 120 mg, Male subjects, SAD arm NCT02022306, Dose 120.00, 15 Minutes, read-out: Concentration (ng/ml)): 0 ng/mL | concentration at 15 min (plasma, oral, 240 mg, Male subjects, SAD arm NCT02022306, Dose 240.00, 15 Minutes, read-out: Concentration (ng/ml)): 0 ng/mL | concentration at 15 min (plasma, oral, 500 mg, Male subjects, SAD arm NCT02022306, Dose 500.00, 15 Minutes, read-out: Concentration (ng/ml)): 0 ng/mL | concentration at 30 min (plasma, oral, 500 mg, Male subjects, SAD arm NCT02022306, Dose 500.00, 30 Minutes, read-out: Concentration (ng/ml)): 2.85 ng/mL
